From patent US11369665B2, “Anti-inflammatory peptides and composition comprising the same” (GemVax & KAEL Co., Ltd., priority 2012, dated 2022)

What was measured:
TNF-α = TNF-α ELISA in LPS-stimulated PBMC-derived monocytes; format: cell-based, human; details: LPS 10 ng/ml 2 hrs, starved 1 hr, 4 uM for 2 hrs, ELISA of culture medium
Method: PBMC (peripheral blood mononuclear cell) was separated from the blood samples (50 ml) collected from healthy subjects using Ficoll-Paque™ PLUS (CYTIVA™, Piscataway, N.J., USA). PBMCs were then enriched in complete RPMI 1640 medium containing 20% of human serum, followed by transferring to 100 mm polystyrene cell culture plate coated with human serum for 30 mins. […]
To see the effect of PEP-1 on TNF-α level in terms of protein expression level. […] After culturing, cell soup was collected, and the amount of TNF-α was measured using ELISA kit (R&D, Minneapolis, Minn., USA) as follows:
TNF measurement uses sandwich ELISA method. […] Again, plate was washed, and avidin/biotin was added for measuring the absorbance. TNF-α level of each sample was quantified using the standard graph calculated from the absorbance of standard solution.
PBMC-derived monocytes were stimulated with endotoxin LPS (10 ng/ml) for 2 hrs, starved for 1 hr using OPTI-MEM®, and then 4 uM of FITC, FITC-TAT, PEP 1-FITC and FITC-PEP 1 were treated for 2 hrs. After incubation, TNF-α level was measured with cell culture medium using ELISA.

neural stem cells = experiment: Amyloid-β toxicity assessment on neural stem cells; format: cell-based, rat; details: 20 μM amyloid-β protein, 48 hours
Method: After removing the cortex from the head of an embryonic rat that had been pregnant for 13 days, it was cultured for a week with Basic Fibroblast Growth Factor (bFGF) to obtain the neural stem cells. To analyze the effects of the amyloid-β protein on the neural stem cells, the pre-oligomerized amyloid-β protein of concentrations 0 to 40 μM was treated on neural stem cells for 48 hours, then CCK-8 assay, BrdU, and TUNEL assay were used for cytotoxicity assessment (refer from BA Yankner et al, 1990 and K N Dahlgren et al, 2002).

e-NOS = experiment: 2D-electrophoresis protein expression in neural stem cells; format: cell-based, rat; details: 20 ug β-amyloid treated group, versus negative control 1.0
Method: (§1) Protein expression level of PEP-1 treated group and untreated group was analyzed by 2D-electrophoresis technique and antibody microarray technique. Prepared 200 μg by extracting proteome from the neural stem cells cultured in Experiment 3-1 of Example 3. In addition, the group in which PEP-1 was not treated was used as the comparison group in the same condition.
(§2) 2D-electrophoresis was performed using 12% acrylamide gels. First gel electrophoresis was performed at PI 4˜10 N, using a gel size of 8.5×7 cm. After electrophoresis, it was dyed with Colloidal Coomassie Blue, and then compared expression by using PDQuest software to analyze each spot.
(§3) Difference in the expression levels of more than 1.5 times was identified using MALDI-TOF MS (Matrix Desorption/Ionization Time of Flight Mass Spectromestry). Among these, proteins correlated with inflammation-related signaling, such as i-NOS and HMGB-1 were identified (Refer to Table 6). The changes in protein expression levels either increased or decreased by 1.5 times by amyloid-β protein, but it was confirmed that expression level was regulated close to that of negative control when PEP-1 was added (Refer to FIGS. 14A-14B).
(§4) The Table 6 below is an analysis of expression levels of proteins associated with inflammation by 2D electrophoresis technique. The control group represents protein expression level of cells that were not treated with neither amyloid-β protein nor PEP-1.

HSP 70 = experiment: as above; format: cell-based, rat; details: 20 ug β-amyloid treated group, versus negative control 1.0
Method: as §1, §2, §3, §4

HSP 90 = experiment: as above; format: cell-based, rat; details: 20 ug β-amyloid treated group, versus negative control 1.0
Method: as §1, §2, §3, §4

GADD 153 = experiment: as above; format: cell-based, rat; details: 20 ug β-amyloid treated group, versus negative control 1.0
Method: as §1, §2, §3, §4

Pyk2 = experiment: as above; format: cell-based, rat; details: 20 ug β-amyloid treated group, versus negative control 1.0
Method: as §1, §2, §3, §4

MAP Kinase = experiment: as above; format: cell-based, rat; details: 20 ug β-amyloid treated group, versus negative control 1.0
Method: as §1, §2, §3, §4

i-NOS = experiment: as above; format: cell-based, rat; details: 20 ug β-amyloid treated group, versus negative control 1.0
Method: as §1, §2, §3, §4

HMGB1 = experiment: as above; format: cell-based, rat; details: 20 ug β-amyloid treated group, versus negative control 1.0
Method: as §1, §2, §3, §4

| Substance | TNF-α level (TNF-α) [ng/mL] | cell survival (neural stem cells) [%] | e-NOS expression (fold) (e-NOS) | HSP 70 expression (fold) (HSP 70) | HSP 90 expression (fold) (HSP 90) | GADD 153 expression (fold) (GADD 153) | Pyk2 expression (fold) (Pyk2) | MAP Kinase expression (fold) (MAP Kinase) | i-NOS expression (fold) (i-NOS) | HMGB1 expression (fold) (HMGB1) |
| --- | --- | --- | --- | --- | --- | --- | --- | --- | --- | --- |
| Fluorescein Isothiocyanate [FITC] | 6.2 | – | – | – | – | – | – | – | – | – |
| amyloid-β protein [reference compound] | – | 60 | 1.9 | −2.3 | −1.8 | 1.6 | 2.0 | 2.2 | 1.9 | −1.5 |
